Measurements reported in PubChem BioAssay (NCI).
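Exposure lasted 48 hours, with cells grown in 96-well plates and compounds tested at five concentrations. GI50 is the concentration that inhibits growth by half. TGI denotes the concentration required for complete inhibition of growth.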

Assays:
Assay in all cases: NCI anticancer screen, dose series, 48 h
OVCAR-3 ovarian = tested on: OVCAR-3 ovarian
SF-295 CNS = tested on: SF-295 CNS
SK-MEL-28 melanoma = tested on: SK-MEL-28 melanoma
OVCAR-5 ovarian = tested on: OVCAR-5 ovarian
RXF 393 renal = tested on: RXF 393 renal
SK-MEL-5 melanoma = tested on: SK-MEL-5 melanoma
SF-268 CNS = tested on: SF-268 CNS
A498 renal = tested on: A498 renal
CAKI-1 renal = tested on: CAKI-1 renal
MOLT-4 leukemia = tested on: MOLT-4 leukemia
DU-145 prostate = tested on: DU-145 prostate
SW-620 colon = tested on: SW-620 colon
SN12C renal = tested on: SN12C renal
TK-10 renal = tested on: TK-10 renal
COLO 205 colon = tested on: COLO 205 colon
SF-539 CNS = tested on: SF-539 CNS
M14 melanoma = tested on: M14 melanoma
HOP-92 NSCLC = tested on: HOP-92 NSCLC
IGROV1 ovarian = tested on: IGROV1 ovarian
PC-3 prostate = tested on: PC-3 prostate
UACC-257 melanoma = tested on: UACC-257 melanoma
MDA-MB-435 = tested on: MDA-MB-435
A549 NSCLC = tested on: A549 NSCLC
SK-MEL-2 melanoma = tested on: SK-MEL-2 melanoma
KM12 colon = tested on: KM12 colon
SNB-75 CNS = tested on: SNB-75 CNS
NCI-H460 lung = tested on: NCI-H460 lung
NCI/ADR-RES ovarian = tested on: NCI/ADR-RES ovarian
HCC-2998 colon = tested on: HCC-2998 colon
EKVX NSCLC = tested on: EKVX NSCLC
LOX IMVI melanoma = tested on: LOX IMVI melanoma
MDA-MB-231 breast = tested on: MDA-MB-231 breast
HOP-62 NSCLC = tested on: HOP-62 NSCLC
HS 578T breast = tested on: HS 578T breast
MCF7 breast = tested on: MCF7 breast
HL-60(TB) leukemia = tested on: HL-60(TB) leukemia
NCI-H522 lung = tested on: NCI-H522 lung
U251 CNS = tested on: U251 CNS
SNB-19 CNS = tested on: SNB-19 CNS
HT29 colon = tested on: HT29 colon
MALME-3M melanoma = tested on: MALME-3M melanoma
786-0 renal = tested on: 786-0 renal
OVCAR-8 ovarian = tested on: OVCAR-8 ovarian
SK-OV-3 ovarian = tested on: SK-OV-3 ovarian
BT-549 breast = tested on: BT-549 breast
HCT-116 colon = tested on: HCT-116 colon
NCI-H226 lung = tested on: NCI-H226 lung
OVCAR-4 ovarian = tested on: OVCAR-4 ovarian
NCI-H23 lung = tested on: NCI-H23 lung
UACC-62 melanoma = tested on: UACC-62 melanoma
T-47D breast = tested on: T-47D breast
HCT-15 colon = tested on: HCT-15 colon
ACHN renal = tested on: ACHN renal
UO-31 renal = tested on: UO-31 renal
SR leukemia = tested on: SR leukemia

Q: How did the GI50 (OVCAR-3 ovarian) turn out when `COc1ccc(Nc2c3c4c(cccc4[nH]c2=O)C(=O)c2ccccc2-3)cc1` was run?
A: < 15.8 nM

Q: What about the TGI (OVCAR-3 ovarian) of the same compound?
A: < 25.7 nM

Q: What about the GI50 (SF-295 CNS) of the same compound?
A: < 17.4 nM

Q: What about the TGI (SF-295 CNS) of the same compound?
A: < 27.5 nM

Q: What about the GI50 (SK-MEL-28 melanoma) of the same compound?
A: 11000 nM

Q: What about the TGI (SK-MEL-28 melanoma) of the same compound?
A: > 100000 nM

Q: And the GI50 (OVCAR-5 ovarian)?
A: 47.9 nM

Q: And the TGI (OVCAR-5 ovarian)?
A: > 90100 nM

Q: And the GI50 (RXF 393 renal)?
A: 47.2 nM

Q: And the TGI (RXF 393 renal)?
A: > 100000 nM

Q: And the GI50 (SK-MEL-5 melanoma)?
A: < 17.2 nM

Q: And the TGI (SK-MEL-5 melanoma)?
A: 45.1 nM

Q: And the GI50 (SF-268 CNS)?
A: 37.3 nM

Q: What about the TGI (SF-268 CNS) of the same compound?
A: 18600 nM

Q: And the GI50 (A498 renal)?
A: < 19.2 nM

Q: And the GI50 (CAKI-1 renal)?
A: < 21.8 nM

Q: And the TGI (CAKI-1 renal)?
A: 1230 nM

Q: What about the GI50 (MOLT-4 leukemia) of the same compound?
A: 558 nM

Q: And the GI50 (DU-145 prostate)?
A: < 18.1 nM

Q: What about the TGI (DU-145 prostate) of the same compound?
A: 46.7 nM

Q: And the GI50 (SW-620 colon)?
A: < 20.3 nM

Q: And the TGI (SW-620 colon)?
A: > 100000 nM

Q: What about the GI50 (SN12C renal) of the same compound?
A: 54.4 nM

Q: What about the TGI (SN12C renal) of the same compound?
A: > 100000 nM

Q: What about the GI50 (TK-10 renal) of the same compound?
A: < 22.5 nM

Q: What about the TGI (TK-10 renal) of the same compound?
A: 21300 nM

Q: What about the GI50 (COLO 205 colon) of the same compound?
A: 19.1 nM

Q: What about the TGI (COLO 205 colon) of the same compound?
A: 44.6 nM

Q: What about the GI50 (SF-539 CNS) of the same compound?
A: 20.6 nM

Q: And the TGI (SF-539 CNS)?
A: 68.7 nM

Q: What about the GI50 (M14 melanoma) of the same compound?
A: < 19.2 nM

Q: And the TGI (M14 melanoma)?
A: > 100000 nM

Q: And the GI50 (HOP-92 NSCLC)?
A: 332 nM

Q: And the TGI (HOP-92 NSCLC)?
A: > 100000 nM

Q: And the GI50 (IGROV1 ovarian)?
A: 36.5 nM

Q: And the TGI (IGROV1 ovarian)?
A: > 100000 nM

Q: And the GI50 (PC-3 prostate)?
A: 47.3 nM

Q: And the TGI (PC-3 prostate)?
A: > 100000 nM

Q: And the GI50 (UACC-257 melanoma)?
A: 1210 nM

Q: What about the TGI (UACC-257 melanoma) of the same compound?
A: > 92400 nM

Q: And the GI50 (MDA-MB-435)?
A: 33.5 nM

Q: What about the TGI (MDA-MB-435) of the same compound?
A: > 100000 nM

Q: And the GI50 (A549 NSCLC)?
A: < 22.1 nM

Q: What about the TGI (A549 NSCLC) of the same compound?
A: > 32100 nM

Q: And the GI50 (SK-MEL-2 melanoma)?
A: 48 nM

Q: What about the TGI (SK-MEL-2 melanoma) of the same compound?
A: > 100000 nM

Q: What about the GI50 (KM12 colon) of the same compound?
A: < 18.2 nM

Q: What about the TGI (KM12 colon) of the same compound?
A: 181 nM

Q: What about the GI50 (SNB-75 CNS) of the same compound?
A: 27.8 nM

Q: What about the TGI (SNB-75 CNS) of the same compound?
A: > 72100 nM

Q: What about the GI50 (NCI-H460 lung) of the same compound?
A: < 10 nM

Q: And the TGI (NCI-H460 lung)?
A: 10100 nM

Q: And the GI50 (NCI/ADR-RES ovarian)?
A: 22.7 nM

Q: And the TGI (NCI/ADR-RES ovarian)?
A: 52.6 nM

Q: And the GI50 (HCC-2998 colon)?
A: 22.1 nM

Q: And the TGI (HCC-2998 colon)?
A: 48.2 nM

Q: And the GI50 (EKVX NSCLC)?
A: 55.2 nM

Q: What about the TGI (EKVX NSCLC) of the same compound?
A: > 100000 nM

Q: What about the GI50 (LOX IMVI melanoma) of the same compound?
A: 23.9 nM

Q: And the TGI (LOX IMVI melanoma)?
A: > 100000 nM

Q: What about the GI50 (MDA-MB-231 breast) of the same compound?
A: 45.1 nM

Q: What about the GI50 (HOP-62 NSCLC) of the same compound?
A: 45.7 nM

Q: And the TGI (HOP-62 NSCLC)?
A: > 100000 nM

Q: What about the GI50 (HS 578T breast) of the same compound?
A: 23.8 nM

Q: And the TGI (HS 578T breast)?
A: > 45900 nM

Q: What about the GI50 (MCF7 breast) of the same compound?
A: < 18.2 nM

Q: And the TGI (MCF7 breast)?
A: 21200 nM

Q: What about the GI50 (HL-60(TB) leukemia) of the same compound?
A: 18.8 nM

Q: And the TGI (HL-60(TB) leukemia)?
A: 39.3 nM

Q: What about the GI50 (NCI-H522 lung) of the same compound?
A: < 17.5 nM

Q: And the GI50 (U251 CNS)?
A: 43.4 nM

Q: And the TGI (U251 CNS)?
A: > 68900 nM

Q: What about the GI50 (SNB-19 CNS) of the same compound?
A: 684 nM

Q: What about the TGI (SNB-19 CNS) of the same compound?
A: > 100000 nM

Q: And the GI50 (HT29 colon)?
A: < 10 nM

Q: And the GI50 (MALME-3M melanoma)?
A: 66.3 nM

Q: And the TGI (MALME-3M melanoma)?
A: 48300 nM

Q: What about the GI50 (786-0 renal) of the same compound?
A: 33.4 nM

Q: What about the TGI (786-0 renal) of the same compound?
A: 19600 nM

Q: What about the GI50 (OVCAR-8 ovarian) of the same compound?
A: 36.7 nM

Q: What about the TGI (OVCAR-8 ovarian) of the same compound?
A: > 100000 nM

Q: And the GI50 (SK-OV-3 ovarian)?
A: 49.2 nM

Q: What about the TGI (SK-OV-3 ovarian) of the same compound?
A: > 56300 nM

Q: And the GI50 (BT-549 breast)?
A: 26.8 nM

Q: And the TGI (BT-549 breast)?
A: 70.8 nM

Q: And the GI50 (HCT-116 colon)?
A: < 10 nM

Q: And the TGI (HCT-116 colon)?
A: 104 nM

Q: What about the GI50 (NCI-H226 lung) of the same compound?
A: 1200 nM

Q: What about the TGI (NCI-H226 lung) of the same compound?
A: > 100000 nM

Q: What about the GI50 (OVCAR-4 ovarian) of the same compound?
A: 971 nM

Q: And the TGI (OVCAR-4 ovarian)?
A: > 100000 nM

Q: And the GI50 (NCI-H23 lung)?
A: < 18.5 nM

Q: And the TGI (NCI-H23 lung)?
A: > 38900 nM

Q: And the GI50 (UACC-62 melanoma)?
A: 31 nM

Q: What about the TGI (UACC-62 melanoma) of the same compound?
A: > 100000 nM

Q: And the GI50 (T-47D breast)?
A: 38400 nM

Q: What about the TGI (T-47D breast) of the same compound?
A: > 100000 nM

Q: What about the GI50 (HCT-15 colon) of the same compound?
A: 27.1 nM

Q: And the TGI (HCT-15 colon)?
A: > 100000 nM

Q: And the GI50 (ACHN renal)?
A: 40.6 nM

Q: And the TGI (ACHN renal)?
A: > 100000 nM

Q: And the GI50 (UO-31 renal)?
A: 319 nM

Q: And the TGI (UO-31 renal)?
A: > 100000 nM

Q: For `N=C(N)c1ccc(-c2ccc(-c3cc(Cl)cc(Cl)c3)s2)cc1`, which GI50 (HL-60(TB) leukemia) is on record?
A: 1070 nM

Q: What about the TGI (HL-60(TB) leukemia) of the same compound?
A: 2800 nM

Q: And the GI50 (SR leukemia)?
A: 284 nM

Q: What about the TGI (SR leukemia) of the same compound?
A: > 100000 nM
